Key:
[1] = Dynamic light scattering, hydrodynamic diameter and PDI of peptide-siRNA complexes; assay type: physicochemical; settings: DLS, 25 °C, peptide-siRNA complex at N/P 40, siRNA 50 nM, HBSS, mean of three independent experiments; for Z-Ave (hydrodynamic diameter): Malvern Nano ZS Zetasizer
Text: The complex of oleyl conjugated peptides and siRNA was formed through physical mixing. Appropriate volumes of oleyl conjugated peptides and siRNA solution were mixed in Hank’s balanced salt solution (HBSS) buffer to obtain the complexes. The oleyl conjugated peptide-siRNA complexes were formed due to ionic interaction between positively charged arginine residues of the conjugates and the negatively charged phosphate groups of siRNAs. […] The N to P ratio is commonly used where N represents the number of moles of ionizable nitrogen in the delivery agent. In contrast, P refers to the number of moles of phosphates present in siRNA. The ratio is calculated using the following formula. N/P=number of moles pf peptidex number of ionized nitrogen atoms/(number of moles of siRA ×48)
The peptide-siRNA complexes were characterized using the dynamic light scattering (DLS) technique. Malvern Nano ZS Zetasizer (Westborough, MA, USA) was used to determine the hydrodynamic diameter and surface charge of the complexes at 25 °C. The zeta potential of the complexes was determined at 40 V using disposable folded capillary cells (DTS1070). The calibration of the instrument was performed by transfer standard DTS 1235. The disposable cuvettes were used for determining the hydrodynamic diameter. The N/P ratio 40 was selected for performing the dynamic light scattering experiment. At this N/P ratio, the final concentration of siRNA in the complex was 50 nM whereas the concentration of oleyl-(HR)4 was 24 µM, oleyl-R1-(HR)4 was 19.20 µM, oleyl-R2-(HR)4 was 16 µM, oleyl-R3-(HR)4 was 13.71 µM, oleyl-R4-(HR)4 was 12 µM, and oleyl-R5-(HR)4 was 10.67 µM. The final volume of the complex used for performing zeta potential was 750 µL. The measurements were performed in triplicate, where each measurement consisted of 20 runs. The zeta potential values were calculated using the Smoluchowski model. All the results passed the quality standard of the instrument.
Particle size was also determined at N/P 40 with the same concentrations of siRNA and oleyl conjugated peptides as described above. The experiments were performed in triplicate on each sample with an automatic attenuator setting. The results were checked with the quality standards of the instruments and were represented as mean ± SD of three independent experiments.

MDA-MB-231 cells [2] = assay: Cellular internalization of Alexa Fluor 488-labeled siRNA by flow cytometry; assay type: cell-based; settings: 24 h; for Increase in cellular uptake of siRNA compared to free siRNA: MDA-MB-231, N/P 40, Alexa-488 siRNA 50 nM, flow cytometry mean fluorescence intensity
Method: The cellular uptake of siRNA complexed with oleyl conjugated peptides was evaluated using flow cytometry (BD-FACSVerse; BD Biosciences, San Jose, CA, USA) in live cells. Alexa fluor 488-labeled scrambled siRNA was used for making complexes with oleyl conjugated peptides. The peptide-siRNA complexes were made at N/P 40; the final concentration of siRNA in each complex was 50 nM. The study was performed on MDA-MB-231 according to the protocol described by Mandal et al.. Briefly, approximately 500,000 cells were seeded in each well of the six-well plates and were allowed to settle for 24 h. The cells were treated with the conjugate-siRNA complexes (N/P 40) and were incubated in a humidified atmosphere of 5% CO2 and 95% air at 37 °C for 24 h. After 24 h of treatment, the cells were washed three times with HBBS and were trypsinized. The suspended cells were centrifuged for 5 min at 1000 rpm (96× g) at 4 °C, and the cells pellet was washed with HBSS three times to remove any traces of the medium. Finally, the cells were resuspended in PBS and analyzed by flow cytometer using Alexa-Fluor-488 channel to quantify the mean fluorescence intensity. The mean fluorescent intensity in the treated cells was calculated for each sample based on the calibration of the signal gated with nontreated cells, serving as a negative control. Alexa-488 labeled scrambled siRNA served as a second negative control, and lipofectamine-siRNA treated cells were used as a positive control.

MDA-MB-231 cells [3] = assay: Cellular uptake of siRNA by confocal microscopy; assay type: cell-based; settings: MDA-MB-231, fixed cells, N/P 40, siRNA 50 nM, 24 h
Method: Confocal microscopy was used to corroborate the data obtained from flow cytometry. There have been reports for using fixed cells or live cells for imaging the cellular uptake of siRNA. We adopted the protocol of Aliabadi et al. to perform the confocal microscopy. Briefly, approximately 400,000 MDA-MB-231 cells were seeded on coverslips in 6-well plates and were allowed to settle for 24 h. After 24 h, the cells were visualized under an ordinary microscope for their health and confluency. Peptide-siRNA complexes at N/P ratio 40 were made containing a final concentration of 50 nM of siRNA, and the cells were treated with these complexes. Nontreated cells served as negative control while lipofectamine-siRNA complexes were used as a positive control. After 24 h of treatment, the cells grown on coverslips were washed 3 times with HBSS and fixed with 3.7% formaldehyde solutions solution for 30 min at room temperature. The […] of the cells were stained with Texas Red (TR) Phalloidin (Invitrogen) (1:250 in HBSS), while the nuclei of the cells were stained with 4′,6-diamidino-2-phenylindole (DAPI). Nikon A1R confocal microscope system was used to image the fixed cells at 60X objective and different filters for Alexa-488 (FITC), DAPI, and TR.

STAT-3 = STAT-3 protein silencing by peptide/STAT-3 siRNA complexes (Western blot); assay type: cell-based; settings: MDA-MB-231, N/P 40, STAT-3 siRNA 50 nM, 48 h; for STAT-3 expression: GAPDH housekeeping
Method: STAT-3 is an essential protein overexpressed in several cancer types, including breast cancer. The silencing effect of the STAT-3 siRNA delivered via oleyl conjugated peptides was determined by checking the expression of STAT-3 in peptide-siRNA complex treated cells. Expression of STAT-3 in nontreated cells served as a negative control, whereas the commercially used transfection agent lipofectamine (20 µg/mL) complexed with STAT-3 siRNA (50 nM) served as the positive control. STAT-3 expression was evaluated by the Western blotting experiment. Approximately 500,000 MDA-MB-231 cells were seeded in T-25 flasks and incubated at 37 °C under standard growth conditions. After 24 h, the cells were treated with peptide-siRNA complexes at N/P 40 for 48 h. The final siRNA concentration at this N/P was 50 nM. After 48 h of treatment, MDA-MB-231 cell lysates were prepared according to the standard protocol using RIPA buffer; the cell lysates were then incubated on ice for 1 h, during which the tubes were sonicated for 3 min after every 10 min. Following sonication for 1 h to ensure the complete lysis of cells, the tubes were centrifuged for 15 min at 12,000 rpm (RCF = 13,870× g) at 4 °C. The supernatant from the centrifuged tubes was transferred to a fresh set of pre-cooled microtubes, and the total protein concentration was determined using […]. Briefly, 200 μL of working reagent (50:1 A:B) was added to 25 μL of standard and unknown samples in triplicate into a 96-well plate, and the sample was mixed on a plate shaker for 30 s. The plate was then incubated at 37 °C and 5% CO2 for 30 min. After half an hour of incubation, the absorbance was measured at 562 nm using a Spectra MAX M5 microplate reader. The protein in each treatment sample was quantified using the BSA standard curve. A total of 15 µg of the protein was loaded per well in a 10% Mini-PROTEAN® TGX Stain-Free. Protein gel electrophoresis was performed in buffer (0.192 M glycine, 25 mM Tris, 0.1% SDS) for 30 min at 200 V. The gel was then transferred to Mini PVDF membrane (Catalog no. 1704156) using Trans-Blot® Turbo (Bio-Rad, Hercules, CA, USA). The membrane was blocked in BSA 5% for 3 h and then incubated at 4 °C overnight with the primary antibody (1:1000 in TBS-T). The membrane was then washed with TBS-T six times (5 min each time) and was subsequently incubated with the secondary HRP-linked antibody (1:1000 in TBS-T) for 1 h, followed by the washing steps. The detection of the bands was done by ECL Detect Kit using a ChemiDoc imager (Bio-Rad, Hercules, CA, USA). The bands were quantified using Image Lab™ software of ChemiDoc imager.

[4] = MDA-MB-231, N/P 40, siRNA 50 nM, flow cytometry, n = 3

| Substance | PDI (polydispersity index) [1] | Z-Ave (hydrodynamic diameter) [1] | Mean fluorescent intensity compared with Alexa-488 siRNA treated cells (MDA-MB-231 cells [2]; [4]) | Cellular uptake compared with lipofectamine (MDA-MB-231 cells [2]; [4]) | Cellular uptake of siRNA within the series (MDA-MB-231 cells [2]; [4]) | Green fluorescence (Alexa-488 siRNA) in confocal images (MDA-MB-231 cells [3]) | Reduction (inhibition) in STAT-3 expression (STAT-3) | STAT-3 expression (STAT-3) | STAT-3 inhibition compared with Lipofectamine 2000 (STAT-3; three independent experiments) | Increase in cellular uptake of siRNA compared to free siRNA (MDA-MB-231 cells [2]) |
| --- | --- | --- | --- | --- | --- | --- | --- | --- | --- | --- |
| Oleyl-R-(HR)4-OH [Oleyl-R1-(HR)4] | 0.201 | 116.9 nm·days | nonsignificant difference in intensity |  |  |  |  |  |  |  |
| Oleyl-(HR)4-OH | 0.213 | 120.1 nm·days | nonsignificant difference in intensity |  |  |  |  |  |  |  |
| Oleyl-RRR-(HR)4-OH [Oleyl-R3-(HR)4] | 0.229 | 117 nm·days |  |  |  |  | ~ 55% | ~ 55% |  | ~ 80 fold |
| Oleyl-RR-(HR)4-OH [Oleyl-R2-(HR)4] | 0.217 | 115.6 nm·days |  |  |  |  | ~ 68% | ~ 68% |  |  |

Continued, in another order:

| PDI (polydispersity index) [1] | Z-Ave (hydrodynamic diameter) [1] | Substance | Mean fluorescent intensity compared with Alexa-488 siRNA treated cells (MDA-MB-231 cells [2]; [4]) | Cellular uptake compared with lipofectamine (MDA-MB-231 cells [2]; [4]) | Cellular uptake of siRNA within the series (MDA-MB-231 cells [2]; [4]) | Green fluorescence (Alexa-488 siRNA) in confocal images (MDA-MB-231 cells [3]) | Reduction (inhibition) in STAT-3 expression (STAT-3) | STAT-3 expression (STAT-3) | STAT-3 inhibition compared with Lipofectamine 2000 (STAT-3; three independent experiments) | Increase in cellular uptake of siRNA compared to free siRNA (MDA-MB-231 cells [2]) |
| --- | --- | --- | --- | --- | --- | --- | --- | --- | --- | --- |
| 0.213 | 115.6 nm·days | Oleyl-RRRRR-(HR)4-OH [Oleyl-R5-(HR)4, oleyl conjugated peptide with five R residues between oleyl and (HR)4] |  | nonsignificant difference | maximum cellular uptake | comparable green fluorescence | ~ 80% | ~ 20% | comparable inhibition |  |
| 0.237 | 115.2 nm·days | Oleyl-RRRR-(HR)4-OH [Oleyl-R4-(HR)4] |  |  |  | comparable green fluorescence | ~ 41% | ~ 41% |  | ~ 80 fold |

Source: PMC9028392, “Oleyl Conjugated Histidine-Arginine Cell-Penetrating Peptides as Promising Agents for siRNA Delivery” (Pharmaceutics, 2022)
